Laboratory results from US20060084789A1, “Immunotherapeutic and immunoprphylactic reagents” (priority 2002, published 2006).

Tests used:
Type in all cases: cell-based, human
[1] = system: IFN-γ production by RGP-specific TCL; test: IFN-γ detection in culture supernatants by sandwich ELISA; settings: supernatant at 48 h, UD undetectable, limit of detection 2 pg/ml
Procedure: (§1) Cytokine Detection in Culture Supernatants
(§2) Supernatants of triplicate cultures were harvested and pooled from T cell proliferation assay cultures at 48 hours for the detection of IL-5 and IFN-γ production by sandwich ELISA. Briefly white Maxisorp (NUNC, Roskilde, Denmark) ELISA plates were coated with capture mAb (anti-IL-5, Pharmingen, San Diego, Calif., USA; anti-IFN-γ, Endogen, Woburn, Mass. USA) overnight at 4° C. Plates were then washed and wells blocked with 1% Bovine Serum Albumin/PBS for 1 hour at room temperature. Following washing, test samples (neat) and serial dilutions of recombinant human IL-5 (Pharmingen, USA) or IFN-γ (Endogen, USA) (for the construction of standard curves) were added and incubated overnight at 4° C. Following washing, plates were incubated with biotinylated detecting mAb (anti-IL-5, Pharmingen, USA; […], Endogen, USA) for 1 hour at room temperature. Plates were then washed and incubated with streptavidin-peroxidase (Amersham, Piscataway, N.J., USA) for 30 minutes at room temperature. Following washing, a chemiluminescent substrate (Du Pont, Wilmington, Del., USA) was added to each well and plates read in a Lumicount microplate Glow Luminometer (Packard Instrument Company, Meriden, Conn., USA), 0.5 seconds/well, automatic sensitivity setting. Standard curve construction and determination of test sample cytokine levels were performed using Packard I-smart software. The limits of detection for IL-5 and IFN-γ were 10 pg/ml and 2 pg/ml respectively.

[2] = system: IL-5 production by RGP-specific TCL; test: IL-5 detection in culture supernatants by sandwich ELISA; settings: supernatant at 48 h, UD undetectable, limit of detection 10 pg/ml
Procedure: as §1, §2

[3] = system: RGP-specific TCL; test: TCL proliferation assay (3H-thymidine incorporation, stimulation index); settings: for Proliferative response, stimulation index: peptides 10 μg/ml
Procedure: Generation of Short-Term RGP-Specific TCL
PBMC were cultured in 24-well plates (Costar, Mass., USA) at 2.5×10^6 cells/well with RGP extract at a concentration of 25 or 50 μg/ml in RPMI 1640 medium (Gibco BRL, NY, USA) supplemented with 2 mM GlutaMAX I (Gibco BRL), 0.05 mg/ml gentamicin (David Bull Laboratories, Mulgrave, Victoria, Australia) and 5% heat-inactivated hunan AB^+ serum (Sigma, Mo., USA) for 7 days at 37° C. in a 5% CO2 humidified incubator. At day 7, cells were washed once and restimulated in 24-well plates at 5×10^5 cells/well width 25 or 50 μg/ml of RGP extract in the presence of 5×10^5 cells/well irradiated (3000 rads) autologous PBMC as a source of antigen presenting cells (APC). At day 2 following restimulation, 10 U/ml of Lymphocult T-LF (LC; Biotest, Germany) was added as a source of IL-2 and at day 4, 1 ml of culture medium was removed and replaced with fresh medium and 10 U/ml of LC. […] In all experiments T cells were rested for 6 to 7 days after the last addition of antigen and APC before testing.
T cells (5×10^4/well) were cultured in 96-well U bottom plates with either RGP extract at concentrations ranging from 25 to 200 μg/ml, purified Lol p 1 (0.12 to 2 μg/ml) or Lol p 5 (0.1 to 10 μg/ml), or Lol p 1 or Lol p 5 peptides (10 μg/ml), or medium alone (to determine background levels of proliferation), in the presence of washed autologous irradiated (3000 rads) PBMC (5×10^4/well). […] Cultures were incubated for 3 days, pulsed for the last 16 hours with ^3H-thymidine (1 μCi/well) and harvested onto glass fibre filters. ^3H-thymidine incorporation was measured by liquid scintillation spectroscopy and the mean counts per minute (cpm) for triplicate cultures was determined. Responses were considered positive if the stimulation index (SI, cpm of antigen-stimulated T cells divided by cpm of unstimulated T cells) was ≧2.5. Where several concentrations of allergen were tested (i.e., RGP, Lol p 1 and Lol p 5), values corresponding to the highest proliferation are shown.

[4] = Subject 15 TCL, Lol p 1 peptides
[5] = Subject 4 TCL, Lol p 1 series (Table 3), RGP and Lol p 1 maximal response
[6] = Subject 7 TCL, Lol p 1 series (Table 3), RGP and Lol p 1 maximal response
[7] = Subject 15 TCL, Lol p 1 series (Table 3), RGP and Lol p 1 maximal response
[8] = Subject 2 TCL, Lol p 5 peptides
[9] = Subject 38 TCL, Lol p 5 peptides
[10] = Subject 2 TCL, Lol p 5 series (Table 4), RGP and Lol p 5 maximal response
[11] = Subject 11 TCL, Lol p 5 series (Table 4), RGP and Lol p 5 maximal response
[12] = Subject 29 TCL, Lol p 5 series (Table 4), RGP and Lol p 5 maximal response
[13] = Subject 20 TCL, Lol p 1 peptides

## LDAKSTWYGKPTGAGPKDNG (Lolium perenne) [Lol p 1 peptide 19-38]
[1]; Subject 3 TCL, Lol p 1 peptides
  IFN-γ, proliferation inducing peptides: 20.9 pg/mL
[1]; [4]
  IFN-γ, proliferation inducing peptides: 204.1 pg/mL
[1]; Subject 19 TCL, Lol p 1 peptides
  IFN-γ, proliferation inducing peptides: 2.8 pg/mL
[2]; [4]
  IL-5, proliferation inducing peptides: 182.7 pg/mL
[3]; Lol p 1 peptide-responsive RGP-specific TCL, SI ≥2.5 positive, listed as Lol p 1 (19-3 8)
  responder frequency among Lol p 1 peptide-responsive donors: 46%
[3]; Subject 2 TCL, Lol p 1 series (Table 3), RGP and Lol p 1 maximal response
  Proliferative response, stimulation index: 5.2
[3]; Subject 3 TCL, Lol p 1 series (Table 3), RGP and Lol p 1 maximal response
  Proliferative response, stimulation index: 3.3
[3]; [5]
  Proliferative response, stimulation index: 12.3
[3]; Subject 6 TCL, Lol p 1 series (Table 3), RGP and Lol p 1 maximal response
  Proliferative response, stimulation index: 2.7
[3]; [6]
  Proliferative response, stimulation index: 3.2
[3]; Subject 8 TCL, Lol p 1 series (Table 3), RGP and Lol p 1 maximal response
  Proliferative response, stimulation index: 3.8
[3]; Subject 12 TCL, Lol p 1 series (Table 3), RGP and Lol p 1 maximal response
  Proliferative response, stimulation index: 7.5
[3]; [7]
  Proliferative response, stimulation index: 10.5
[3]; Subject 17 TCL, Lol p 1 series (Table 3), RGP and Lol p 1 maximal response
  Proliferative response, stimulation index: 5.3
[3]; Subject 19 TCL, Lol p 1 series (Table 3), RGP and Lol p 1 maximal response
  Proliferative response, stimulation index: 10.3
[3]; Subject 21 TCL, Lol p 1 series (Table 3), RGP and Lol p 1 maximal response
  Proliferative response, stimulation index: 3.8

## DVNAGFKAAVAAAANAPPAD (Lolium perenne) [Lol p 5 peptide 37-56]
[1]; [8]
  IFN-γ, proliferation inducing peptides: 7.0 pg/mL
[1]; [9]
  IFN-γ, proliferation inducing peptides: 85.0 pg/mL
[2]; [8]
  IL-5, proliferation inducing peptides: 692.8 pg/mL
[2]; [9]
  IL-5, proliferation inducing peptides: 275.1 pg/mL
[3]; [10]
  Proliferative response, stimulation index: 4.3
[3]; Subject 6 TCL, Lol p 5 series (Table 4), RGP and Lol p 5 maximal response
  Proliferative response, stimulation index: 7.3
[3]; [11]
  Proliferative response, stimulation index: 4.5
[3]; Subject 13 TCL, Lol p 5 series (Table 4), RGP and Lol p 5 maximal response
  Proliferative response, stimulation index: 0.9
[3]; Subject 20 TCL, Lol p 5 series (Table 4), RGP and Lol p 5 maximal response
  Proliferative response, stimulation index: 4.9
[3]; [12]
  Proliferative response, stimulation index: 2.8
[3]; Subject 35 TCL, Lol p 5 series (Table 4), RGP and Lol p 5 maximal response
  Proliferative response, stimulation index: 4.1
[3]; Subject 38 TCL, Lol p 5 series (Table 4), RGP and Lol p 5 maximal response, * SDS-PAGE purified Lol p 5
  Proliferative response, stimulation index: 4.0

## Lol p 5 peptide 190-209: synthetic 20-mer, amino acids 190-209 of Lol p 5A (SEQ ID NO:2) (GAYETYKFIPSLEAAVKQAY; Lolium perenne)
[1]; [8]
  IFN-γ, proliferation inducing peptides: 7.8 pg/mL
[2]; [8]
  IL-5, proliferation inducing peptides: 518.1 pg/mL
[3]; [10]
  Proliferative response, stimulation index: 3.0
[3]; Subject 4 TCL, Lol p 5 series (Table 4), RGP and Lol p 5 maximal response
  Proliferative response, stimulation index: 5.1
[3]; [11]
  Proliferative response, stimulation index: 4.0
[3]; [12]
  Proliferative response, stimulation index: 3.1

## Lol p 1 peptide 64-83: synthetic 20-mer, amino acids 64-83 of Lol p 1A (SEQ ID NO:1) (KDGRGCGSCFEIKCTKPESC; Lolium perenne)
[1]; [4]
  IFN-γ, proliferation inducing peptides: 38.8 pg/mL
[2]; [4]
  IL-5, proliferation inducing peptides: 26.5 pg/mL
[3]; Subject 1 TCL, Lol p 1 series (Table 3), RGP and Lol p 1 maximal response
  Proliferative response, stimulation index: 7.2
[3]; [6]
  Proliferative response, stimulation index: 3.5
[3]; [7]
  Proliferative response, stimulation index: 3.5

## Lol p 1 peptide 37-56: synthetic 20-mer, amino acids 37-56 of Lol p 1A (SEQ ID NO:1) (NCGACGYKDVDKAPFNGMTG; Lolium perenne)
[1]; [13]
  IFN-γ, proliferation inducing peptides: 11.1 pg/mL
[2]; [13]
  IL-5, proliferation inducing peptides: 46.9 pg/mL
[3]; [5]
  Proliferative response, stimulation index: 2.5
[3]; Subject 20 TCL, Lol p 1 series (Table 3), RGP and Lol p 1 maximal response
  Proliferative response, stimulation index: 2.6
